Assay results published in a melting point compilation (Tetko et al.; mined from patent text by program, amines drawn as free bases though some values may be those of a salt).
Residues, ends and D or L forms follow the SMILES beside them. *: point of attachment. Cbz = O=C(OCc1ccccc1)*

SMILES | melting point [°C]
CCCN(CCC)Cc1coc(-c2ncn3c2CN(C)C(=O)c2sccc2-3)n1 | 110 to 111
CC(C)Cc1[nH]nc2c(N)nc3ccccc3c12 | 248 to 249
C(=C1CNCCN1)c1ccccc1 | 80 to 81
CCOC(=O)C(=NOC)c1csc2cc(F)ccc12 | 84.5 to 86
CC12CC3CC(C1)CC(CC(O)C(c1cccc(Cl)c1)n1ccnc1)(C3)C2 (stereo not given) | 126
Cn1c(CNC2CCS(=O)(=O)CC2)cc2cc(NC(=O)c3ccc(OCC4CC4)cc3)ccc21 | 200 to 201
O=C(O)Cc1ccc(Br)c(O)c1Br | 186
O=Cc1c2ccccc2c(Cl)c2cc(Cl)ccc12 | 174 to 175
Cc1cccc(NC(=O)c2cc(C#N)cc(C)n2)c1 | 160
Fc1ccc(-c2cc(C(F)(F)F)n3ncc(-c4cccnc4)c3n2)cc1Cl | 190
CCCCCCC(C)(C)c1cc(OC)c(C2=C[C@@H]3CC[C@@]2(C)C3(C)C)c(OC)c1 | 35 to 37
FC(F)(F)c1nncn1-c1ccc(Cl)cc1 | 108
Cc1cn(CCCCc2ccccc2)c2ccc(C(=O)Nc3cccc4c(=O)cc(-c5nnn[nH]5)oc34)cc12 | 186 to 187
CC(C)C[C@H]1C[C@]2(O)C[C@@H](OC2=O)[C@@H]1OC(=O)c1ccccc1 | 71 to 72
CC(C)N1C(=O)c2cccc(Cl)c2N(C#N)S1(=O)=O | 123 to 124
Cn1cc(S(C)=O)c(=O)c2ccsc21 (stereo not given) | 150 to 152
CC(C)(C)C(=O)N[C@H]1CC[C@H](CCN2CCC(c3cccc4c3CCO4)CC2)CC1 | 192
COc1ccc(O)c(C2(OC)Sc3ccccc3N(C)C2=O)c1 (stereo not given) | 135 to 136
CC(=O)NNCC1CC2c3cccc4[nH]cc(c34)CC2N(C)C1 (stereo not given) | 213 to 215
O=C(/C=C/c1cccc(S(=O)(=O)N2CCN(c3cccc(C(F)(F)F)c3)CC2)c1)NO | 173
COc1ccc2c(c1C=O)OCO2 | 124
C[C@]1(COc2ccc(N3CCN(C(=O)OCc4ccc(Cl)cc4)CC3)cc2)Cn2cc([N+](=O)[O-])nc2O1 | 184 to 188
O=C(CNC(=O)c1ccc(F)cc1)c1ccoc1 | 142 to 143
O=C(NCCn1ccnc1)c1cc2cc(Cl)ccc2[nH]1 | 167 to 169
Fc1cccc2c1[nH]c1c2ccc2cc[nH]c21 | > 250

SMILES | melting point [°C]
Cc1ccccc1-c1nnc(N2CCC(O)CC2)nc1-c1ccccc1C | 155 to 156
C=C(C(=O)c1cc2c(c(C)c1C)OC(C(=O)O)C2)C(C)C (stereo not given) | 97
NC(=S)Nc1ccc(C(F)(F)F)cn1 | 203 to 205
CCOC(=O)c1nn(C)cc1-c1ccccc1 | 145
OC(CN1CC=C(c2ccc(Cl)cc2)CC1)c1ccc(Cc2ccc(Cl)cc2)cc1 (stereo not given) | 149 to 152
C[C@H](NC(=O)OCc1ccccc1)C(=O)N1CCC[C@H]1C(=O)O (Cbz-Ala-Pro-OH) | 124 to 125
O=C1Nc2ccccc2N(C(=O)CN2CCCCC2CN2CCOCC2)c2ccccc21 (stereo not given) | 194 to 195
FC(F)C(F)(F)Oc1cccc(Nc2nccc(-c3c[nH]c4ccccc34)n2)c1 | 140 to 142
Cc1ncccc1[N+](=O)[O-] | 29 to 31
Cc1[nH]c(=O)n(-c2cc(C(=O)OC(C)C)c(Cl)cc2F)c(=O)c1[N+](=O)[O-] | 202 to 205
Cc1nc(N2CCN(Cc3ccc(C(F)(F)F)cc3)C2=O)sc1C(N)=O | 216 to 217
Cc1nc(CCc2nc3ccc(F)cc3c(=O)n2-c2cccnc2C)cs1 | 151 to 153
CN1c2ccc(-c3cccc4ccccc34)cc2S(=O)c2cc(-c3cccc4ccccc34)ccc21 | 221 to 225
COc1cccc2c(Nc3ccccc3C)nccc12 | 111 to 112
Cn1c(=O)c2ncn(CCCCCC(=O)O)c2n(C)c1=O | 177
Cc1cccc(NC(=O)OCc2cccc(O)c2)c1CNc1cccn2c(C)c(C)nc12 | 190 to 193
CC(O)c1cc(I)cc(S(N)(=O)=O)c1 (stereo not given) | 184 to 187
CC(C)(C=O)N1C(=O)c2ccccc2C1=O | 80 to 82
c1ccc(-c2n[nH]c3c2sc2ccccc23)cc1 | 236 to 238
O=C(O)c1cn(C2CC2)c2cc(N3CCN(C(=O)OCCn4cccn4)CC3)c(F)cc2c1=O | 205 to 208
CCOC(OCC)N1C(=O)C(c2ncnc3cc(OCCOC)c(OC)cc23)c2ccccc21 (stereo not given) | 148 to 150
CCCCc1nn(-c2ccccc2C(F)(F)F)c(=O)n1Cc1ccc(-c2ccccc2S(=O)(=O)NC(=O)C(c2ccccc2)c2ccccc2)cc1 | 144 to 146
N#Cc1c(-c2ccccc2)c(-c2ccccc2)nn(CCO)c1=O | 197 to 198
CC(=O)OC1c2ccc(Cl)cc2CC1S(C)(=O)=O (stereo not given) | 136
O=c1[nH]c2ccc(Br)cc2cc1[N+](=O)[O-] | 276
